The record followed here is patent publication US20090156517A1, “STABLE PHARMACEUTICAL COMPOSITIONS OF AMINOGLYCOSIDE ANTIBIOTICS, ION-CHELATING AGENTS, AND BUFFERS” (priority 2006, published 2009).

The nature of the series: Amounts of antibiotic components in the solution over time (reverse-phase LC/UV for β-lactams and β-lactamase inhibitors, HPLC/evaporation-light-scattering for aminoglycosides). The series is classed as physicochemical. The protocol:
The amounts of β-lactam antibiotics and β-lactamase inhibitor were determined using C18 reverse-phase LC and UV-VIS detector (Tianjin […] Co., Ltd., analysis method No. HM-K-03). The content of aminoglycoside antibiotics was measured using reverse-phase HPLC and evaporation-light-scattering detector (Tianjin […] Co., Ltd., analysis method No. HM-K-08). […] The relative amount of each antibiotic component in the composition at each time point was expressed as peak area ratio with respect to the corresponding peak area of an external standard.

On to `NCC[C@H](O)C(=O)N[C@@H]1C[C@H](N)[C@@H](O[C@H]2O[C@H](CN)[C@@H](O)[C@H](O)[C@H]2O)[C@H](O)[C@H]1O[C@H]1O[C@H](CO)[C@@H](O)[C@H](N)[C@H]1O` [Amikacin, amikacin], for which the “Amount of component, percentage of amount at initial time” value (Example 9: amikacin sulfate/disodium EDTA/citrate pH 6.5 solution with fructose stored 7 days at minus 20° C., thawed, cefodizime sodium added, 0 h) is reported as 96.88%; the “Amount of component, percentage of amount at initial time” value (Example 9: amikacin sulfate/disodium EDTA/citrate pH 6.5 solution with fructose stored 7 days at minus 20° C., thawed, cefodizime sodium added, 1 h) stood at 97.78%; the “Amount of component, percentage of amount at initial time” value (Example 9: amikacin sulfate/disodium EDTA/citrate pH 6.5 solution with fructose stored 7 days at minus 20° C., thawed, cefodizime sodium added, 2 h) was determined as 96.14%; the “Amount of component, percentage of amount at initial time” value (Example 9: amikacin sulfate/disodium EDTA/citrate pH 6.5 solution with fructose stored 7 days at minus 20° C., thawed, cefodizime sodium added, 4 h) came out at 96.88%; the “Amount of component, percentage of amount at initial time” value (Example 9: amikacin sulfate/disodium EDTA/citrate pH 6.5 solution with fructose stored 7 days at minus 20° C., thawed, cefodizime sodium added, 6 h) was found to be 98.34%; the “Amount of component, percentage of amount at initial time” value (Example 9: amikacin sulfate/disodium EDTA/citrate pH 6.5 solution with fructose stored 7 days at minus 20° C., thawed, cefodizime sodium added, 8 h) is 98.11%. For the same molecule, the “Amount of component, percentage of amount at initial time” value was 86.05% (Example 12: thawed solution from Example 10, pH 6.0, amikacin sulfate added, no EDTA, 0 h); 83.57% (Example 12: thawed solution from Example 10, pH 6.0, amikacin sulfate added, no EDTA, 1 h); 81.55% (Example 12: thawed solution from Example 10, pH 6.0, amikacin sulfate added, no EDTA, 2 h); 80.55% (Example 12: thawed solution from Example 10, pH 6.0, amikacin sulfate added, no EDTA, 4 h); 85.75% (Example 12: thawed solution from Example 10, pH 6.0, amikacin sulfate added, no EDTA, 6 h); 83.83% (Example 12: thawed solution from Example 10, pH 6.0, amikacin sulfate added, no EDTA, 8 h).
Consider `CCN1CCN(C(=O)N[C@@H](C(=O)N[C@@H]2C(=O)N3C(C(=O)O)=C(CSc4nnnn4C)CS[C@H]23)c2ccc(O)cc2)C(=O)C1=O` [Cefoperazone sodium, cefoperazone sodium], for which the “Amount of component, percentage of amount at initial time” value reads like this: (Example 4 solution (cefoperazone sodium, sulbactam sodium, gentamicin, sodium citrate pH 6.75, no EDTA), room temperature, 0 h) 101.4%; (Example 4 solution (cefoperazone sodium, sulbactam sodium, gentamicin, sodium citrate pH 6.75, no EDTA), room temperature, 1 h) 98.66%; (Example 4 solution (cefoperazone sodium, sulbactam sodium, gentamicin, sodium citrate pH 6.75, no EDTA), room temperature, 2 h) 98.79%; (Example 4 solution (cefoperazone sodium, sulbactam sodium, gentamicin, sodium citrate pH 6.75, no EDTA), room temperature, 4 h) 101.5%; (Example 4 solution (cefoperazone sodium, sulbactam sodium, gentamicin, sodium citrate pH 6.75, no EDTA), room temperature, 6 h) 107.4%; (Example 5 solution (cefoperazone sodium, sulbactam sodium, gentamicin, disodium EDTA, sodium citrate pH 6.75), room temperature, 0 h) 101.4%. The “Amount of component, percentage of amount at initial time” value reads like this: (Example 5 solution (cefoperazone sodium, sulbactam sodium, gentamicin, disodium EDTA, sodium citrate pH 6.75), room temperature, 1 h) 98.66%; (Example 5 solution (cefoperazone sodium, sulbactam sodium, gentamicin, disodium EDTA, sodium citrate pH 6.75), room temperature, 2 h) 98.79%; (Example 5 solution (cefoperazone sodium, sulbactam sodium, gentamicin, disodium EDTA, sodium citrate pH 6.75), room temperature, 4 h) 101.5%; (Example 5 solution (cefoperazone sodium, sulbactam sodium, gentamicin, disodium EDTA, sodium citrate pH 6.75), room temperature, 6 h) 107.4%; (Example 6 solution (cefoperazone sodium, sulbactam sodium, etimicin sulfate, disodium EDTA, sodium citrate pH 6.5), room temperature, 0 h) 110.4%; (Example 6 solution (cefoperazone sodium, sulbactam sodium, etimicin sulfate, disodium EDTA, sodium citrate pH 6.5), room temperature, 1 h) 99.48%. Further, the “Amount of component, percentage of amount at initial time” value is, setting by setting: (Example 6 solution (cefoperazone sodium, sulbactam sodium, etimicin sulfate, disodium EDTA, sodium citrate pH 6.5), room temperature, 2 h) 101.3%; (Example 6 solution (cefoperazone sodium, sulbactam sodium, etimicin sulfate, disodium EDTA, sodium citrate pH 6.5), room temperature, 4 h) 98.66%; (Example 6 solution (cefoperazone sodium, sulbactam sodium, etimicin sulfate, disodium EDTA, sodium citrate pH 6.5), room temperature, 6 h) 98.02%; (Example 6 solution (cefoperazone sodium, sulbactam sodium, etimicin sulfate, disodium EDTA, sodium citrate pH 6.5), room temperature, 8 h) 99.30%; (Example 14: cefoperazone sodium/tazobactam sodium solution pH 6.75, disodium EDTA and amikacin sulfate added, room temperature, 0 h) 100.2%; (Example 14: cefoperazone sodium/tazobactam sodium solution pH 6.75, disodium EDTA and amikacin sulfate added, room temperature, 1 h) 99.0%. The “Amount of component, percentage of amount at initial time” value runs as follows: (Example 14: cefoperazone sodium/tazobactam sodium solution pH 6.75, disodium EDTA and amikacin sulfate added, room temperature, 2 h) 99.0%; (Example 14: cefoperazone sodium/tazobactam sodium solution pH 6.75, disodium EDTA and amikacin sulfate added, room temperature, 4 h) 96.2%; (Example 14: cefoperazone sodium/tazobactam sodium solution pH 6.75, disodium EDTA and amikacin sulfate added, room temperature, 6 h) 94.5%; (Example 14: cefoperazone sodium/tazobactam sodium solution pH 6.75, disodium EDTA and amikacin sulfate added, room temperature, 8 h) 95.3%; (Example 14: cefoperazone sodium/tazobactam sodium solution pH 6.75, etimicin sulfate added, 0 h) 100.2%; (Example 14: cefoperazone sodium/tazobactam sodium solution pH 6.75, etimicin sulfate added, 1 h) 99.0%. Also, the “Amount of component, percentage of amount at initial time” value (Example 14: cefoperazone sodium/tazobactam sodium solution pH 6.75, etimicin sulfate added, 2 h) is 99.0%; the “Amount of component, percentage of amount at initial time” value (Example 14: cefoperazone sodium/tazobactam sodium solution pH 6.75, etimicin sulfate added, 4 h) came to 96.2%; the “Amount of component, percentage of amount at initial time” value (Example 14: cefoperazone sodium/tazobactam sodium solution pH 6.75, etimicin sulfate added, 6 h) is on record as 94.5%; the “Amount of component, percentage of amount at initial time” value (Example 14: cefoperazone sodium/tazobactam sodium solution pH 6.75, etimicin sulfate added, 8 h) was determined as 95.3%.
Consider `CO/N=C(\C(=O)N[C@@H]1C(=O)N2C(C(=O)O)=C(CSc3nc(=O)c(=O)[nH]n3C)CS[C@H]12)c1csc(N)n1` [Ceftriaxone sodium, ceftriaxone sodium], for which the “Amount of component, percentage of amount at initial time” value is, setting by setting: (Example 7 solution (ceftriaxone sodium, sulbactam sodium, etimicin sulfate, disodium EDTA, sodium citrate pH 6.5), room temperature, 0 h) 97.01%; (Example 7 solution (ceftriaxone sodium, sulbactam sodium, etimicin sulfate, disodium EDTA, sodium citrate pH 6.5), room temperature, 1 h) 100.3%; (Example 7 solution (ceftriaxone sodium, sulbactam sodium, etimicin sulfate, disodium EDTA, sodium citrate pH 6.5), room temperature, 2 h) 96.40%; (Example 7 solution (ceftriaxone sodium, sulbactam sodium, etimicin sulfate, disodium EDTA, sodium citrate pH 6.5), room temperature, 4 h) 99.01%; (Example 7 solution (ceftriaxone sodium, sulbactam sodium, etimicin sulfate, disodium EDTA, sodium citrate pH 6.5), room temperature, 6 h) 98.91%; (Example 7 solution (ceftriaxone sodium, sulbactam sodium, etimicin sulfate, disodium EDTA, sodium citrate pH 6.5), room temperature, 8 h) 99.53%. Also, the “Amount of component, percentage of amount at initial time” value is, setting by setting: (Example 8 solution (ceftriaxone sodium, tazobactam sodium, gentamicin sulfate, sodium citrate pH 6.75), room temperature, 0 h) 98.75%; (Example 8 solution (ceftriaxone sodium, tazobactam sodium, gentamicin sulfate, sodium citrate pH 6.75), room temperature, 1 h) 100.1%; (Example 8 solution (ceftriaxone sodium, tazobactam sodium, gentamicin sulfate, sodium citrate pH 6.75), room temperature, 2 h) 99.97%; (Example 8 solution (ceftriaxone sodium, tazobactam sodium, gentamicin sulfate, sodium citrate pH 6.75), room temperature, 4 h) 98.87%; (Example 8 solution (ceftriaxone sodium, tazobactam sodium, gentamicin sulfate, sodium citrate pH 6.75), room temperature, 6 h) 99.27%; (Example 8 solution (ceftriaxone sodium, tazobactam sodium, gentamicin sulfate, sodium citrate pH 6.75), room temperature, 8 h) 100.5%.
